Data on 36 compounds can be found in patent publication US4549023A, “3-Aminoindazole derivatives” (priority 1980, dated 1985).

For data set [1], the system named is carrageenin edema in rat's paw. Kind of data set: Carrageenin Edema Test in Rat's Paw (anti-inflammatory activity). In kind it is in vivo, Female Wistar rats. To be noted: for inhibition in vivo at 100 mg/kg: Rattus norvegicus, hydrochloric acid salts; for Inhibition values compared with comparative compounds: Table 1, 100 mg/kg. The protocol:
A standard method of Carrageenin Edema Test in Rat's Paw described in C. A. Winter et al., Proc. Soc. Exp. Biol. Med., 111, 544 (1962) was employed.
[…] One hour later, the pad of a hind paw of the rat was injected with 0.1 ml of 1% aqueous carrageenin solution. The volume of the paw was measured both before the injection of carrageenin and three hours after the injection.
The edema inhibition percentage of the test compound was calculated from the ratio of the increase in the volume of the affected paw of the test animals to the increase in the volume of the affected paw of the controls.
The anti-inflammatory activity of the 3-aminoindazole derivative hydrochloric acid salts of this invention was measured.
The anti-inflammatory activity of the 3-aminoindazole derivative hydrochloric acid salts obtained by Examples 1-49 of this invention was measured by the standard method of carrageenin edema test. In these tests, the amount of the administration of the salts was 100 mg/kg. The results are shown in Table 17 (Inhibition (%) was measured three hours after the injection).
(The carrageenan paw model is a standard test of acute inflammation.)

Data set [2] is described as follows: Acute toxicity (LD50), intravenous injection. To be noted: mouse, in vivo, male ddY-strain mice, read-out: LD50, Table 19. How it is done:
Acute toxicity was measured by an ordinary method described in Finney DJ Probit Analysis Cambridge University Press 48, (1952). Ddy mice weighing about 18 g on average, each group consisting of 10 animals, were […] injected with the physiological salt solution containing the test compound. The amount of the test compound administered was varied in 5-8 groups. Three days after the administration, dead animals were counted in each group. The amount of the test compound killing half the number of the animals (LD50) was calculated from the results.
The acute toxicity of the 3-aminoindazole derivatives and their hydrochloric acid salts obtained by Examples 1-49 of this invention was measured by giving male ddY-strain mice an intravenous injection.

The mark [3] stands for this setting: po, 3 h, 100 mg/kg, measured three hours after the injection, read-out: Inhibition (carrageenin edema), Table 17.
The mark [4] stands for this setting: 100 mg/kg, oral, 3 h after carrageenin, read-out: Inhibition (carrageenin edema), Table 1.

Like-named read-outs stand apart in the source and are kept apart here.

As for `c1ccc2c(NCCN3CCCCC3)n[nH]c2c1` [Compound (1), 3-(2-piperidinoethylamino)indazole], the inhibition in vivo at 100 mg/kg in data set [1] (setting [3]) was found to be 48%. Also, the LD50 (as a rule, the dose at which mortality reaches 50%) at 72 h in data set [2] worked out at 146 mg/kg.

As for `c1ccc2c(NCCCCCCN3CCCCC3)n[nH]c2c1` [Compound (3), 3-(6-piperidinohexylamino)indazole], the inhibition in vivo at 100 mg/kg in data set [1] (setting [3]) stood at 30%. The LD50 at 72 h in data set [2] came to 143 mg/kg.

Turning to `c1ccc2c(NCCCN3CCCC3)n[nH]c2c1` [Compound (4), 3-(3-pyrrolidinopropylamino)indazole], the inhibition in vivo at 100 mg/kg in data set [1] (setting [3]) and in data set [1] (setting [4]) was 30% in each case. The “Inhibition values compared with comparative compounds” value in data set [1] is listed as “higher than that of the compound C-1”. The LD50 at 72 h in data set [2] was 97 mg/kg.

Take `c1ccc2c(NCCCN3CCCCCC3)n[nH]c2c1` [Compound (5), 3-(3-homopiperidinopropylamino)indazole]: the inhibition in vivo at 100 mg/kg in data set [1] (setting [3]) was found to be 59%. Besides, the LD50 at 72 h in data set [2] is 175 mg/kg.

`CC1CCCC(C)N1CCCNc1n[nH]c2ccccc12` (centres unmarked) [Compound (7), 3-{3-(2,6-dimethylpiperidino)propylamino}indazole]: the inhibition in vivo at 100 mg/kg in data set [1] (setting [3]) was found to be 35%. Further, the LD50 at 72 h in data set [2] turned out to be 143 mg/kg.

As for `OC1CCN(CCCNc2n[nH]c3ccccc23)CC1` [Compound (8), 3-{3-(4-hydroxypiperidino)propylamino}indazole], in data set [1] (setting [3]), the inhibition in vivo at 100 mg/kg is 47%. For the same compound, the LD50 at 72 h in data set [2] was 358 mg/kg.

In the case of `ClC1CCN(CCCNc2n[nH]c3ccccc23)CC1` [Compound (9), 3-{3-(4-chloropiperidino)propylamino}indazole], the inhibition in vivo at 100 mg/kg in data set [1] (setting [3]) is 68%. Also, the LD50 at 72 h in data set [2] was 347 mg/kg.

`CCCCN(CCCC)CCCNc1n[nH]c2ccccc12` [Compound (11), 3-(3-di-n-butylaminopropylamino)indazole]: in data set [1] (setting [3]), the inhibition in vivo at 100 mg/kg was 65%. Further, the LD50 at 72 h in data set [2] was 115 mg/kg.

Consider `CN(C)CCNc1n[nH]c2ccccc12` [Compound (12), 3-(2-dimethylaminoethylamino)indazole], for which the inhibition in vivo at 100 mg/kg in data set [1] (setting [3]) was determined as 52%. The LD50 at 72 h in data set [2] was 334 mg/kg.

As for `CN1CCN(CCCNc2n[nH]c3ccccc23)CC1` [Compound (13), 3-{3-(4-methylpiperazino)propylamino}indazole], the inhibition in vivo at 100 mg/kg in data set [1] (setting [3]) and in data set [1] (setting [4]) was 30% in each case. In addition, the “Inhibition values compared with comparative compounds” value in data set [1] is on record as “higher than that of the compound C-1”. Further, in data set [2], the LD50 at 72 h was found to be 359 mg/kg.

`CC(CCNc1n[nH]c2ccccc12)N1CCCCC1` (centres unmarked) [Compound (14), 3-(3-piperidinobutylamino)indazole]: in data set [1] (setting [3]), the inhibition in vivo at 100 mg/kg is 55%. In addition, the LD50 at 72 h in data set [2] stood at 95 mg/kg.

`CC(C)CC(CCNc1n[nH]c2ccccc12)N1CCCCC1` (centres unmarked) [Compound (15), 3-(5-methyl-3-piperidinohexylamino)indazole]: the inhibition in vivo at 100 mg/kg in data set [1] (setting [3]) stood at 42%. The LD50 at 72 h in data set [2] amounted to 144 mg/kg.

Regarding `CCN(CC)C(C)CCNc1n[nH]c2ccccc12` (centres unmarked) [Compound (16)], the inhibition in vivo at 100 mg/kg in data set [1] (setting [3]) stood at 63%. Moreover, the LD50 at 72 h in data set [2] was 184 mg/kg.

For the compound `Nc1nn(CCN2CCCCC2)c2ccccc12` [Compound (17), 1-(2-piperidinoethyl)-3-aminoindazole], the inhibition in vivo at 100 mg/kg in data set [1] (setting [3]) was 47%. In data set [2], the LD50 at 72 h stood at 143 mg/kg.

Consider `Nc1nn(CCCCCCN2CCCCC2)c2ccccc12` [Compound (19), 1-(6-piperidinohexyl)-3-aminoindazole], for which the inhibition in vivo at 100 mg/kg in data set [1] (setting [3]) was 29%. Further, the LD50 at 72 h in data set [2] is 144 mg/kg.

`Nc1nn(CCCN2CCCC2)c2ccccc12` [Compound (20), 1-(3-pyrrolidinopropyl)-3-aminoindazole]: the inhibition in vivo at 100 mg/kg in data set [1] (setting [3]) stood at 29%. The LD50 at 72 h in data set [2] was determined as 98 mg/kg.

Consider `Nc1nn(CCCN2CCCCCC2)c2ccccc12` [Compound (21), 1-(3-homopiperidinopropyl)-3-aminoindazole], for which the inhibition in vivo at 100 mg/kg in data set [1] (setting [3]) was 58%. Further, the LD50 at 72 h in data set [2] turned out to be 184 mg/kg.

For the compound `CC1CCCC(C)N1CCCn1nc(N)c2ccccc21` (centres unmarked) [Compound (23), 1-{3-(2,6-dimethylpiperidino)propyl}-3-aminoindazole], the inhibition in vivo at 100 mg/kg in data set [1] (setting [3]) came out at 34%. In addition, the LD50 at 72 h in data set [2] is 152 mg/kg.

On to `Nc1nn(CCCN2CCC(O)CC2)c2ccccc12` [Compound (24), 1-{3-(4-hydroxypiperidino)propyl}-3-aminoindazole], for which, in data set [1] (setting [3]), the inhibition in vivo at 100 mg/kg worked out at 46%. The LD50 at 72 h in data set [2] came out at 367 mg/kg.

Consider `Nc1nn(CCCN2CCC(Cl)CC2)c2ccccc12` [Compound (25), 1-{3-(4-chloropiperidino)propyl}-3-aminoindazole], for which the inhibition in vivo at 100 mg/kg in data set [1] (setting [3]) was found to be 59%. Also, the LD50 at 72 h in data set [2] was found to be 356 mg/kg.

`CCN(CC)CCCn1nc(N)c2ccccc21` [Compound (26), 1-(3-diethylaminopropyl)-3-aminoindazole]: in data set [1] (setting [3]), the inhibition in vivo at 100 mg/kg came to 61%. In addition, the LD50 at 72 h in data set [2] stood at 243 mg/kg.

Take `CCCCN(CCCC)CCCn1nc(N)c2ccccc21` [Compound (27), 1-(3-di-n-butylaminopropyl)-3-aminoindazole]: the inhibition in vivo at 100 mg/kg in data set [1] (setting [3]) is 57%. Also, the LD50 at 72 h in data set [2] came out at 124 mg/kg.

In the case of `CC(CCn1nc(N)c2ccccc21)N1CCCCC1` (centres unmarked) [Compound (29), 1-(3-piperidinobutyl)-3-aminoindazole], the inhibition in vivo at 100 mg/kg in data set [1] (setting [3]) was 46%. In addition, the LD50 at 72 h in data set [2] stood at 104 mg/kg.

Regarding `CC(C)CC(CCn1nc(N)c2ccccc21)N1CCCCC1` (centres unmarked) [Compound (30), 1-(5-methyl-3-piperidinohexyl)-3-aminoindazole], the inhibition in vivo at 100 mg/kg in data set [1] (setting [3]) turned out to be 35%. Moreover, in data set [2], the LD50 at 72 h amounted to 153 mg/kg.

As to `CC(C)CC(CCn1nc(N)c2ccccc21)N(C)C` (centres unmarked) [Compound (31), 1-(3-dimethylamino-5-methylhexyl)-3-aminoindazole], in data set [1] (setting [3]), the inhibition in vivo at 100 mg/kg worked out at 28%. Moreover, the median lethal dose (LD50) at 72 h in data set [2] was 154 mg/kg.

In the case of `CN1CCN(CCCn2nc(N)c3ccccc32)CC1` [Compound (32), 1-{3-(4-methylpiperazino)propyl}-3-aminoindazole], the inhibition in vivo at 100 mg/kg in data set [1] (setting [3]) was determined as 27%. Moreover, the LD50 at 72 h in data set [2] stood at 368 mg/kg.

Take `CCN(CC)CCCNc1nn(CCCN(CC)CC)c2ccccc12` [Compound (33), 1-(3-diethylaminopropyl)-3-(3-diethylaminopropylamino)indazole]: the inhibition in vivo at 100 mg/kg in data set [1] (setting [3]) and in data set [1] (setting [4]) was 29% each time. Besides, the LD50 at 72 h in data set [2] was found to be 238 mg/kg.

On to `CCN(CC)CCCn1nc(NCCCN2CCCCC2)c2ccccc21` [Compound (34), 1-(3-diethylaminopropyl)-3-(3-piperidinopropylamino)indazole], for which the inhibition in vivo at 100 mg/kg in data set [1] (setting [3]) and in data set [1] (setting [4]) was 28% in each case. The LD50 at 72 h in data set [2] came out at 172 mg/kg.

As for `CCN(CC)CCCn1nc(NCCCCCCN2CCCCC2)c2ccccc21` [Compound (35)], the inhibition in vivo at 100 mg/kg in data set [1] (setting [3]) is 21%. In addition, in data set [2], the LD50 at 72 h was 193 mg/kg.

As to `CCCCN(CCCC)CCCNc1nn(CCCN(CC)CC)c2ccccc12` [Compound (36), 1-(3-diethylaminopropyl)-3-(3-di-n-butylaminopropylamino)indazole], the inhibition in vivo at 100 mg/kg in data set [1] (setting [3]) came to 31%. In addition, in data set [2], the LD50 at 72 h is 179 mg/kg.

Regarding `CCN(CC)CCCn1nc(NCCC(C)N2CCCCC2)c2ccccc21` (centres unmarked) [Compound (37), 1-(3-diethylaminopropyl)-3-(3-piperidinobutylamino)indazole], the inhibition in vivo at 100 mg/kg in data set [1] (setting [3]) stood at 27%. For the same compound, in data set [2], the LD50 at 72 h is 169 mg/kg.

In the case of `CCN(CC)CCCNc1nn(CCCN2CCCCC2)c2ccccc12` [Compound (38), 1-(3-piperidinopropyl)-3-(3-diethylaminopropylamino)indazole], the inhibition in vivo at 100 mg/kg in data set [1] (setting [3]) and in data set [1] (setting [4]) was 29% each time. Further, the LD50 at 72 h in data set [2] turned out to be 168 mg/kg.

Turning to `CCCNc1n[nH]c2ccccc12` [Compound C-1, 3-(propylamino)indazole, reference compound], the inhibition in vivo at 100 mg/kg in data set [1] (setting [4]) was 7%.

With `CCCn1nc(N)c2ccccc21` [Compound C-2, 1-propyl-3-aminoindazole, reference compound], the inhibition in vivo at 100 mg/kg in data set [1] (setting [4]) turned out to be 7%.

With `Nc1nn(CCc2ccccc2)c2ccccc12` [Compound C-3, 1-(2-phenylethyl)-3-aminoindazole, reference compound], in data set [1] (setting [4]), the inhibition in vivo at 100 mg/kg came out at 7%.

Regarding `CN(C)CCNc1nn(-c2ccccc2)c2ccccc12` [Compound C-5, 1-phenyl-3-(2-dimethylaminoethylamino)indazole, reference compound], the “Inhibition (carrageenin edema), Table 2” value in data set [1] (25 mg/kg, oral) was 15%; in data set [1] (50 mg/kg, oral), 18%; in data set [1] (100 mg/kg, oral), 55%.
